A short description of series [1]: MENT Ac subcutaneous implants in healthy men: serum MENT levels and in vivo release. Also on record: species or system human. As to the method:
(§1) Forty-five healthy, normal male subjects were selected for a study of the contraceptive effect of androgens alone. Subjects were treated over the course of four weeks, during which extensive blood work-ups were undertaken. The subjects were divided into three groups of 15 each. Group A received one subcutaneous implant, Group B received two subcutaneous implants and Group C received four subcutaneous implants. Implants remained in place for 28 consecutive days.
(§2) The total duration of the study was 42 days. Each man included in the study was assessed through a medical history and a complete general physical examination and a determination of general eligibility. Subjects were tested on a weekly basis for six consecutive weeks at approximately the same time each day. Day 1 was the date of the subdermal implant's insertion and Day 29 was removal. On the last day of the study, Day 43, subjects received a general physical examination, as well as an additional battery of blood tests. Blood samples for hormone immuno assays MENT (7 mL), FSH, LH and testosterone (5 mL for the last 3 hormones together) were obtained during pre-admission and each subsequent visit.

Series [2] relates to serum levels of LH, FSH, T and DHT. Put plainly: MENT Ac subcutaneous implants in healthy men for 28 days: serum hormone levels. Type of series: in vivo, human. As for the experimental part:
as §1, §2
FIG. 2 illustrates the effect of MENT Ac implants on mean serum LH concentration. […] By suppressing LH, testosterone production is suppressed. […] A reduction in testosterone reduces or eliminates spermatogenesis. However, because androgen is being supplied, sexual function is generally maintained.
Finally, FIG. 3 illustrates the effect of MENT Ac implants on the mean serum FSH concentration. […] FSH stimulates germ cell production. If germ cells are present, but testosterone is insufficient, then spermatogenesis cannot take place and sperm cells will not be produced. Similarly, if FSH concentrations are low enough, germ cells will not be produced and spermatogenesis cannot take place irrespective of testosterone levels.

Series [3] concerns prostate. The conditions noted are these: in the potency ranges contemplated; cited from earlier work.
Series [4] concerns serum levels of LH, FSH and T. Put plainly: Multiple-dose daily i.m. injection of MENT in normal men for six days: serum hormone levels. Type of series: in vivo, human. As to the method:
Two multiple injection studies were undertaken in which groups of four normal, non-sterile men each received 1, 2 or 4 mg of MENT daily by intramuscular (i.m.) injection for six consecutive days (24 men, 12 in each study). The formulation in each injection included the appropriate amount of MENT suspended in 27.6 mg/mL of polyethylene glycol, 1.8 mg/mL of Tween 80 and 8.3 mg/mL of sodium chloride. Serum FSH, LH and testosterone levels were measured daily. The results are illustrated in FIGS. 7-12.
The values returned to the normal range by day 15-30 of the study period. With reference to FIG. 8 (open boxes connected by a line=1 mg, closed boxes connected by a line=2 mg, open circles connected by a line=4 mg) a dose of at least 4 mg was required to obtain serum levels of FSH below two international units (“IU”) per liter by day 6. This must be compared with the results obtained by the use of 1000 μg (1 mg) of the same androgen delivered by a subcutaneous implant as illustrated in FIGS. 2-4 and Example 1. Therefore, considerably more of this same androgen was required to obtain certain depressed serum levels of LH, FSH and testosterone in males when the androgen was administered through a once-a-day intramuscular injection when compared to continuous release implants. […] FIG. 7 illustrates the level of serum LH achieved in the first study and FIG. 9 illustrates the level of serum testosterone achieved. FIGS. 10-12 illustrate the levels of LH, FSH and testosterone realized by the same protocol at the second testing site. Both the data and the overall trends of both studies are largely the same.

[5] abbreviates: single implant, about 500 micrograms MENT Ac per day, about 28 days.
Setting [6] is: two implants simultaneously, about 1,000 micrograms MENT Ac per day.

For `CC(=O)O[C@H]1CC[C@H]2[C@H]3[C@H](CC[C@]12C)[C@H]1CCC(=O)C=C1C[C@H]3C` [MENT Ac], in series [1] (4.4 cm implant, drug load 112±4 mg MENT Ac, based on an in vivo study), the release rate result is “approximately 500 micrograms per implant per day”. Further, the bioavailability from implants entry in series [1] (certain subcutaneous implants, MENT Ac compared with MENT) was “superior in terms of bioavailability”. In addition, the “hydrolysis to MENT” value in series [1] (in vivo) is listed as “readily hydrolyzed to MENT”. The “mean serum LH concentration” value in series [2] (2 or 4 implants (500 micrograms each), day 8) is “nearly undetectable levels of LH”; in series [2] (first post implant visit on day 8, one, two or four implants) it was “dropped significantly”. For the same molecule, the “levels of LH, FSH and testosterone” value in series [2] (four 500 microgram per day implants simultaneously) is reported as “very comparable to those obtained at the 1000 microgram per day level”. In series [2] (one, two or four implants), the “mean serum FSH concentration” value is listed as “significant impact on the serum FSH concentration”. In addition, the entries for the “mean serum T concentration (testosterone)” value in series [2] (single implant) and in series [2] (two or four implants) were “much reduced levels of testosterone” and “very low testosterone levels”, respectively. The figures for the “daily blood levels of FSH (average)” value in series [2] (setting [5]) and in series [2] (setting [6]) were “above 2 IU/L” and “less than 0.5 IU/L”, respectively. Moreover, the entries for the “daily blood levels of LH (average)” value in series [2] (setting [5]) and in series [2] (setting [6]) were “below 2 IU/L” and “less than 0.5 IU/L”, respectively. Besides, the entries for the “daily blood levels of testosterone” value in series [2] (setting [5]) and in series [2] (setting [6]) were “about 5.0 nmol/liter” and “about 1.0 nmol/liter”, respectively.

Take `C[C@]12CC[C@H]3[C@@H](CCC4=CC(=O)CC[C@@]43C)[C@@H]1CC[C@@H]2O` [testosterone, reference compound]: in series [3], the “stimulation of the prostate” value is given as “can overstimulate the prostate”.

Take `C[C@@H]1CC2=CC(=O)CC[C@@H]2[C@H]2CC[C@]3(C)[C@@H](O)CC[C@H]3[C@@H]21` [MENT, 7α-methyl-19-nortestosterone]: the “result in terms of testosterone (contraceptive adequacy)” value in series [4] (1 mg MENT by i.m. injection once a day) is reported as “inadequate for contraceptive purposes”. Moreover, the “contraceptive adequacy from serum testosterone (FIGS. 9 and 12)” value in series [4] (4 mg MENT by once-a-day i.m. injection) is “sufficient to ensure that some level of effective contraception is obtained”. For the same molecule, the “serum gonadotropins and testosterone levels” value in series [4] (1, 2 or 4 mg MENT daily i.m. for six days, both studies) is “gradual decrease”. Further, the “time at which serum gonadotropins and testosterone reached their lowest levels” value in series [4] (1, 2 or 4 mg MENT daily i.m., end of treatment) was “six”. The “study day by which values returned to the normal range” value in series [4] (after 1, 2 or 4 mg MENT daily i.m. for six days) fell in the range of 15 to 30 days. Moreover, the “dose required to obtain serum levels of FSH below two IU per liter by day 6” value in series [4] (daily i.m. injection, first study, FIG. 8) is “at least 4 mg”. For the same molecule, the “stimulation of the prostate” value in series [3] is reported as “stimulates the prostate to a much lower degree”. The “levels of the metabolite DHT” value in series [2] (MENT Ac implants, FIG. 5) is on record as “actually decreased”.
